Reference: PubChem BioAssay (NCI)
Several values for one entry are separate records, joined by “and”; a condition that tells them apart may be missing. Identical values can stand only once.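 Compound exposure: 48 hours, 5 concentrations, 96-well plates. GI50: concentration for 50% inhibition of growth. TGI denotes the concentration required for complete inhibition of growth.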

What was measured:
Experiment in all cases: NCI-60 cell line screen, 48 h
[1] = test system: ACHN renal
[2] = test system: HCC-2998 colon
[3] = test system: HL-60(TB) leukemia
[4] = test system: HS 578T breast
[5] = test system: MDA-N
[6] = test system: NCI-H226 lung
[7] = test system: OVCAR-3 ovarian
[8] = test system: OVCAR-8 ovarian
[9] = test system: SK-MEL-2 melanoma
[10] = test system: SN12C renal
[11] = test system: SR leukemia

| SMILES | TGI [1] [µM] | TGI [2] | TGI [3] [µM] | TGI [4] [µM] | TGI [5] | TGI [6] [µM] | TGI [7] | TGI [8] | TGI [9] | TGI [10] [µM] | TGI [11] | GI50 [6] |
| --- | --- | --- | --- | --- | --- | --- | --- | --- | --- | --- | --- | --- |
| Oc1cccc(-c2cn3cc(Cl)ccc3n2)c1 | > 100 | > 100 µM | 56.2 | > 100 | > 100 µM | > 100 | > 100 µM | > 100 µM | > 100 µM | > 100 | > 100 µM |  |
| COc1ccc(C2CCc3c(cnc4nc(N)nc(N)c34)C2)cc1 (stereo not given) | 51 | > 100 µM | > 100 | > 100 | > 100 µM | > 100 | > 100 µM | > 100 µM | > 100 µM | > 100 | > 100 µM |  |
| CC(C)c1cc(C(C)C)c(B(c2ccccc2)c2ccccc2)c(C(C)C)c1Br | > 100 | > 100 µM | > 100 | > 100 | > 100 µM | > 100 | > 100 µM | > 100 µM | > 100 µM | > 100 | > 100 µM |  |
| CSC(=N/N=C(\C)c1ccc(S(=O)(=O)N(C)c2ccccc2)cc1)SC | > 100 | > 100 µM | > 100 | > 100 | > 100 µM | > 100 | > 100 µM | > 100 µM | > 100 µM | > 100 | > 100 µM |  |
| CCOC(=O)CCN1C(=O)c2c(NC(=O)C(=O)O)cccc2S1(=O)=O | > 100 | > 100 µM | > 100 | > 100 | > 100 µM | > 100 |  | > 100 µM | > 100 µM | > 100 | > 100 µM |  |
| N#Cc1c(NC(=S)Nc2ccccc2)sc2c1CCCC2 | > 100 | > 100 µM | > 100 | > 100 | > 100 µM | > 100 | > 100 µM | > 100 µM | > 100 µM | > 100 | > 100 µM |  |
| NC(=O)c1ccc(S(=O)(=NS(=O)(=O)c2ccccc2)c2ccc(C(N)=O)cc2)cc1 | > 100 | > 100 µM | > 100 | > 100 | > 100 µM | > 100 | > 100 µM | > 100 µM | > 100 µM | > 100 | > 100 µM |  |
| O=C1CCc2c(sc3ncnc(Nc4cccc(Br)c4)c23)C1 | 8.04 | 15 µM | 7.56 | > 79.8 | 7.69 µM | 14.8 | 8.31 µM | 21.3 µM | 23.8 µM | 12.7 | 7.82 µM |  |
| CC(=O)OC1COC(n2c(N)c(C#N)c(-c3ccccc3)c(C#N)c2=S)C(OC(C)=O)C1OC(C)=O (stereo not given) | > 100 | 90.1 µM and 56.9 µM | 44.8 | > 100 | 88.2 µM and 88.3 µM | > 100 | > 100 µM and 97.2 µM | > 100 µM and 97.3 µM | > 100 µM and 68.4 µM | > 100 | 46.3 µM and 52.2 µM | 41.6 µM and 89.4 µM |
| CC1C/C(=C\c2ccc(O)c(O)c2)C(=O)/C(=C/c2ccc(O)c(O)c2)C1 (stereo not given) | 21.6 | 35.1 µM | 8.42 | 24.9 | 15.7 µM | 9.64 | 18.1 µM | 48.7 µM | 34.8 µM | 20.4 | 14 µM |  |
| CC1=NNC(N)=N/C1=C\C(Sc1ccc(Cl)cc1)c1ccc(Cl)cc1Cl (stereo not given) | 29.1 | 17 µM | 22.2 | 44.2 | > 71.5 µM | 36.2 |  | 31.7 µM | 38 µM | 62.4 | > 100 µM |  |
| O=C1CSC2=NC3=C(COC/C3=C\c3ccc(F)cc3)C(c3ccc(F)cc3)N12 (stereo not given) | > 100 | > 100 µM | 34.5 | > 100 | > 100 µM | > 100 | > 100 µM | > 100 µM | > 100 µM | > 100 | > 100 µM |  |
| C[C@@H]1CC(=O)[C@@]2(C)[C@](O)(CCC3O[C@]32C)[C@@]12CC(c1ccoc1)OC2=O (stereo not given in full) | > 100 | > 100 µM | 62.8 | > 100 | > 100 µM | > 100 | > 100 µM | > 100 µM | > 100 µM |  | 68.5 µM |  |
| CCOC(=O)CCC1(C(=O)O[C@@H]2C[C@H](C)CC[C@H]2C(C)C)CCCCC1=O (stereo not given in full) | > 100 |  | 57.6 | > 100 | > 100 µM | > 100 | > 100 µM | > 100 µM | > 100 µM | > 100 | > 100 µM |  |
| COc1ccc(C2=C(N)c3cc(OC)ccc3C2=O)cc1 | > 100 | > 100 µM | > 100 | 69.9 | > 100 µM | > 100 | > 100 µM | > 100 µM | > 100 µM | > 100 | > 100 µM |  |
| O=C1/C(=C/Cc2ccco2)N=C(c2ccccc2)N1c1nc2c(Cl)cc(Cl)cc2s1 | 74.6 | > 100 µM | 49.9 | 57.4 | 47.9 µM |  | 52.6 µM | > 100 µM | 63.5 µM | > 100 | 38.7 µM |  |
| NC(=O)c1nnc2c(F)cccc2c1N | > 100 | > 100 µM | > 100 | > 100 | > 100 µM | > 100 | > 100 µM | > 100 µM | > 100 µM | > 100 | > 100 µM |  |
| O=C1CSC(c2cc3cc(Br)ccc3nc2Cl)N1c1ccc(F)c(Cl)c1 (stereo not given) | > 50 | > 50 µM | > 50 | > 50 | > 50 µM | > 50 | > 50 µM | > 50 µM | > 50 µM | > 50 | > 50 µM |  |
| S=C1NNC(=S)NN1 | > 1 | > 1 µM | > 1 | > 1 | > 1 µM | > 1 | > 1 µM | > 1 µM | > 1 µM | 0.354 | 0.671 µM |  |
